Measured values taken from patent publication US4968698A, “Nitrogen containing heterocyclic compounds” (Burroughs Wellcome Co., priority 1984, dated 1990).
≈ marks a conversion by molar mass, not a printed value. Where two headings read alike, the source gives them in different places.

Test system: Trichomonas vaginalis
Assay: In vitro activity against T. vaginalis (IC50 determination)
Type: cell-based
Conditions: 37° C., aerobic, Modified Diamonds Medium
Method: The antiprotozoal e.g. antitrichomonal, activity of the compounds of the present invention may be assessed by conventional methods, for example by determining the minimum inhibition concentration (m.i.c.) or 50% inhibition level (IC50).
Modified Diamonds Medium (MDM) was prepared according to the method described in J. Kulda et al., American Journal of Obstetrics and Gynaecology 1970, 108, 908-18 and 4 cm^3 of the medium was pipetted into each of a series of tubes (usually 16 tubes). To each tube was added 0.5 cm^3 of varying concentration of a solution (usually in ethanol+MDM) or suspension of the test drug. Duplicate tubes for each drug concentration were prepared.
Finally, to each tube was added T. vaginalis (0.5 cm^3) at a concentration of 1×10^5 cm^-3,) to give a final trichomonad concentration of 1×10^4 cm^-3 in each tube. The tubes were then incubated (aerobically) at 37° C. and the resulting trichomonad numbers were counted at 24 and 48 hours using a haemacytometer.
This information was then used to determine the 50% inhibition concentration (IC50).

[1] = 24 hr, 1×10^4 trichomonads cm^-3, read-out: IC50 24 hr
[2] = 48 hr, 1×10^4 trichomonads cm^-3, read-out: IC50 48 hr

IC50 [1] [µg/mL] | IC50 [2] [µg/mL] | SMILES
1.2 (≈ 3.53 µM) | 2 (≈ 5.88 µM) | CCCCOc1ccc2c(c1)CCN=C2C=Cc1ccccc1Cl [Example 12, 6-Butyloxy-1-(2-chlorostyryl)-3,4-dihydroisoquinoline]
5.5 (≈ 15 µM) | 8 (≈ 21.9 µM) | CCCCOc1ccc2c(c1)CCN=C2C=Cc1ccc(OC)cc1OC [Example 14, 6-Butyloxy-3,4-dihydro-1-(2,4-dimethoxystyryl)isoquinoline]
1.5 (≈ 4.15 µM) | 2.8 (≈ 7.74 µM) | CCCCOc1ccc2c(c1)CCN=C2C=Cc1ccc(C(C)(C)C)cc1 [Example 15, 6-Butyloxy-1-(4-t-butylstyryl)-3,4-dihydroisoquinoline]
10 (≈ 28.5 µM) | 13.5 (≈ 38.5 µM) | CCCCOc1ccc2c(c1)CCN=C2C=Cc1ccc([N+](=O)[O-])cc1 [Example 19, 6-Butyloxy-3,4-dihydro-1-(4-nitrostyryl)isoquinoline]
1.2 (≈ 3.15 µM) | 128 (≈ 336 µM) | CCCCOc1ccc2c(c1)CCN=C2C=Cc1ccc(-c2ccccc2)cc1 [Example 24, 6-Butyloxy-3,4-dihydro-1-(4-phenylstyryl)isoquinoline]
0.7 (≈ 1.74 µM) | 1 (≈ 2.49 µM) | CC(C)(C)CCOc1ccc2c(c1)CCN=C2C=Cc1ccc(Cl)cc1Cl [Example 33, 1-(2,4-Dichlorostyryl)-3,4-dihydro-6-(3,3-dimethylbutyloxy)isoquinoline]
1.1 (≈ 2.95 µM) | 1.3 (≈ 3.49 µM) | C=CCCOc1ccc2c(c1)CCN=C2C=Cc1ccc(Cl)cc1Cl [Example 46, 6-(But-3-enyloxy)-1-(2,4-dichlorostyryl)-3,4-dihydroisoquinoline]
1.1 (≈ 3.24 µM) | 1.7 (≈ 5 µM) | CC(C)COc1ccc2c(c1)CCN=C2C=Cc1ccccc1Cl [Example 47, 1-(2-Chlorostyryl)-3,4-dihydro-6-(2-methylpropyloxy)-isoquinoline]
3.2 (≈ 9.43 µM) | 5.5 (≈ 16.2 µM) | C(=Cc1ccccc1)C1=NCCc2cc(OCc3ccccc3)ccc21 [Example 53, 6-Benzyloxy-3,4-dihydro-1-styrylisoquinoline]
8 (≈ 20 µM) | 8 (≈ 20 µM) | COc1ccc(C=CC2=NCCc3cc(OCc4ccccc4)ccc32)c(OC)c1 [Example 56, 6-Benzyloxy-3,4-dihydro-1-(2,4-dimethoxystyryl)isoquinoline]
5.6 (≈ 14.2 µM) | 10.5 (≈ 26.5 µM) | CC(C)(C)c1ccc(C=CC2=NCCc3cc(OCc4ccccc4)ccc32)cc1 [Example 60, 6-Benzyloxy-1-(4-t-butylstyryl)-3,4-dihydroisoquinoline]
1.2 (≈ 3.33 µM) | 1.6 (≈ 4.45 µM) | Clc1ccc(C=CC2=NCCc3cc(Oc4ccccc4)ccc32)cc1 [Example 65, 1-(4-Chlorostyryl)-3,4-dihydro-6-phenoxy-isoquinoline]
5 (≈ 12.4 µM) | 5.3 (≈ 13.1 µM) | O=[N+]([O-])c1ccc(C=CC2=NCCc3cc(Oc4ccc(Cl)cc4)ccc32)cc1 [Example 68, 6-(4-Chlorophenoxy)-3,4-dihydro-1-(4-nitrostyryl)-isoquinoline]
0.8 (≈ 1.78 µM) | 1.4 (≈ 3.11 µM) | CC(C)(C)c1ccc(Oc2ccc3c(c2)CCN=C3C=Cc2ccc(Cl)cc2Cl)cc1 [Example 71, 6-(4-t-Butylphenoxy)-1-(2,4-dichlorostyryl)-3,4-dihydroisoquinoline]
0.4 (≈ 1.05 µM) | 1.1 (≈ 2.88 µM) | CC(C)(C)c1ccc(Oc2ccc3c(c2)CCN=C3C=Cc2ccccc2)cc1 [Example 73, 6-(4-t-Butylphenoxy)-3,4-dihydro-1-styrylisoquinoline]
3.3 (≈ 9.9 µM) | 0.9 (≈ 2.7 µM) | CCCCCCOc1ccc2c(c1)CCN=C2C=Cc1ccccc1 [Example 74, 6-Hexyloxy-3,4-dihydro-1-styrylisoquinoline]
0.3 (≈ 0.837 µM) | 0.8 (≈ 2.23 µM) | CCCCCCOc1ccc2c(c1)CCN=C2C=Cc1ccc(C#N)cc1 [Example 75, 1-(4-Cyanostyryl)-6-hexyloxy-3,4-dihydroisoquinoline]
2.5 (≈ 6.32 µM) | 2.4 (≈ 6.07 µM) | CC(C)(C)c1ccc(COc2ccc3c(c2)CCN=C3C=Cc2ccccc2)cc1 [Example 80, 6-(4-t-Butylbenzyloxy)-3,4-dihydro-1-styrylisoquinoline]
1.1 (≈ 2.37 µM) | 1.6 (≈ 3.45 µM) | CC(C)(C)c1ccc(COc2ccc3c(c2)CCN=C3C=Cc2ccc(Cl)cc2Cl)cc1 [Example 81, 6-(4-t-Butylbenzyloxy)-1-(2,4-dichlorostyryl)-3,4-dihydroisoquinoline]
0.6 (≈ 1.44 µM) | 2 (≈ 4.81 µM) | C(=Cc1ccc(-c2ccccc2)cc1)C1=NCCc2cc(OCc3ccccc3)ccc21 [Example 82]
1.1 (≈ 2.48 µM) | 1.5 (≈ 3.39 µM) | Clc1ccc(COc2ccc3c(c2)CCN=C3C=Cc2ccc(Cl)cc2Cl)cc1 [Example 85, 6-(4-Chlorobenzyloxy)-1-(2,4-dichlorostyryl)-3,4-dihydroisoquinoline]

IC50 [1] [µg/mL] | IC50 [2] [µg/mL] | SMILES
0.5 (≈ 1.05 µM) | 1 (≈ 2.1 µM) | Clc1ccc(C=CC2=NCCc3cc(OCc4ccc(Cl)cc4Cl)ccc32)c(Cl)c1 [Example 92, 6-(2,4-Dichlorobenzyloxy)-1-(2,4-dichlorostyryl)-3,4-dihydroisoquinoline]
7.4 (≈ 21.4 µM) | 7.3 (≈ 21.1 µM) | C(=C\c1cccs1)/C1=NCCc2cc(OCc3ccccc3)ccc21 [Example 104, (E)-6-Benzyloxy-3,4-dihydro-1-[2-(2-thienyl)vinyl]isoquinoline]
2 (≈ 6.42 µM) | 6.7 (≈ 21.5 µM) | CCCCOc1ccc2c(c1)CCN=C2/C=C/c1cccs1 [Example 105, (E)-6-Butyloxy-3,4-dihydro-1-[2-(2-thienyl)vinyl]isoquinoline]
1.4 (≈ 4.05 µM) | 3.7 (≈ 10.7 µM) | C(=C\c1ccsc1)/C1=NCCc2cc(OCc3ccccc3)ccc21 [Example 106, (E)-6-Benzyloxy-3,4-dihydro-1-(3-thienyl)vinyl isoquinoline]
2.7 (≈ 6.36 µM) | 6.1 (≈ 14.4 µM) | Brc1csc(/C=C/C2=NCCc3cc(OCc4ccccc4)ccc32)c1 [Example 108, (E)-6-Benzyloxy-3,4-dihydro-1-[2-(4-bromo-2-thienyl)vinyl]isoquinoline]
0.7 (≈ 2.14 µM) | 1.2 (≈ 3.68 µM) | CCCOc1ccc2c(c1)CCN=C2/C=C/c1ccc([N+](=O)[O-])o1 [Example 113, (E)-3,4-Dihydro-6-propyloxy-1-[2-(5-nitro-2-furyl)]vinyl isoquinoline]
0.4 (≈ 1.07 µM) | 1 (≈ 2.67 µM) | O=[N+]([O-])c1ccc(/C=C/C2=NCCc3cc(OCc4ccccc4)ccc32)o1 [Example 115, (E)-6-Benzyloxy-3,4-dihydro-1-[2-(5-nitro-2-furyl)]vinyl isoquinoline]
1.5 (≈ 4.1 µM) | 1.7 (≈ 4.65 µM) | C(/C=C/c1ccccc1)=C\C1=NCCc2cc(OCc3ccccc3)ccc21 [Example 126, (E,E)-6-Benzyloxy-3,4-dihydro-1-(4-phenylbuta-1,3-dienyl)isoquinoline]
2.9 (≈ 9.75 µM) | 3.1 (≈ 10.4 µM) | C/C=C/C=C/C1=NCCc2cc(OCCCCCC)ccc21 [Example 129, (E,E)-6-Hexyloxy-3,4-dihydro-1-(penta-1,3-dienyl)isoquinoline]
3.6 (≈ 11.9 µM) | 5.4 (≈ 17.8 µM) | C/C=C/C=C/C1=NCCc2cc(OCc3ccccc3)ccc21 [Example 130, (E,E)-6-Benzyloxy-3,4-dihydro-1-(penta-1,3-dienyl)isoquinoline]
1.3 (≈ 3.66 µM) | 1.6 (≈ 4.5 µM) | CCCCOc1ccc2c(c1)CCN=C2/C=C/c1cccc2ccccc12 [Example 135, (E)-6-Butyloxy-3,4-dihydro-1-[2-(1-naphthyl)vinyl]isoquinoline]
1 (≈ 4.36 µM) | 1.7 (≈ 7.41 µM) | CC=CC1=NCCc2cc(OCCC)ccc21 [Example 137, 3,4-Dihydro-1-prop-1-enyl-6-propyloxyisoquinoline]
0.2 (≈ 0.52 µM) | 0.3 (≈ 0.781 µM) | CCCCOc1ccc2c(c1)CCN=C2/C(Br)=C/c1ccccc1 [Example 147, (Z)-6-Butyloxy-1-(1-bromo-2-phenylvinyl)-3,4-dihydroisoquinoline]
0.2 (≈ 0.588 µM) | 0.2 (≈ 0.588 µM) | CCCCOc1ccc2c(c1)CCN=C2/C(Cl)=C/c1ccccc1 [Example 150]
0.3 (≈ 0.802 µM) | 0.3 (≈ 0.802 µM) | Cl/C(=C\c1ccccc1)C1=NCCc2cc(OCc3ccccc3)ccc21 [Example 151, (Z)-6-Benzyloxy-1-(1-chloro-2-phenylvinyl)-3,4-dihydroisoquinoline]
0.3 (≈ 0.939 µM) | 0.5 (≈ 1.57 µM) | CCCCOc1ccc2c(c1)CCN=C2/C(C)=C/c1ccccc1 [Example 153, (E)-6-Butyloxy-3,4-dihydro-1-(2-phenyl-1-methylvinyl)isoquinoline]
1.2 (≈ 2.87 µM) | 2.2 (≈ 5.26 µM) | CCCOc1cc2c(cc1OCCC)C(C=Cc1ccc(Cl)cc1Cl)=NCC2 [Example 155, 1-(2,4-Dichlorostyryl)-3,4-dihydro-6,7-dipropyloxyisoquinoline]
1.8 (≈ 4.37 µM) | 2.1 (≈ 5.1 µM) | CCCCOc1cc2c(cc1OCCCC)C(C=Cc1ccc(Cl)cc1)=NCC2 [Example 157, 6,7-Dibutyloxy-1-(4-chlorostyryl)-3,4-dihydroisoquinoline]
0.8 (≈ 1.85 µM) | 1.1 (≈ 2.54 µM) | CCCOc1cc2c(cc1OCCC)C(C=Cc1ccc(Cl)cc1Cl)=NC(C)C2 (stereo not drawn) [Example 158, 1-(2,4-Dichlorostyryl)-3,4-dihydro-3-methyl-6,7-dipropyloxyisoquinoline]
0.6 (≈ 1.43 µM) | 1 (≈ 2.39 µM) | CCCCOc1cc2c(cc1OCC)C(C=Cc1ccc(Cl)cc1Cl)=NCC2 [Example 160, 6-Butyloxy-1-(2,4-dichlorostyryl)-7-ethoxy-3,4-dihydroisoquinoline]
0.7 (≈ 1.67 µM) | 1.4 (≈ 3.35 µM) | CCCCOc1cc2c(cc1OCC)CCN=C2C=Cc1ccc(Cl)cc1Cl [Example 161, 7-Butyloxy-1-(2,4-dichlorostyryl)-6-ethoxy-3,4-dihydroisoquinoline]
